Measured values published in ChEMBL document CHEMBL3046293, “Fungicidal Activities of -Methoxyphenylacetic Acid Derivatives” (2002).

What was measured:
Format in all cases: functional
Botrytis cinerea [1] = assay: Fungicidal activity against Botryotinia fuckeliana assessed as cucumber gray mold disease control at 125 ppm treated 24 hr before inoculation by preventive manner
Pyricularia oryzae [2] = assay: Fungicidal activity against Magnaporthe oryzae Cav. race 003 assessed as rice blast disease control at 500 ppm treated 24 hr before inoculation by preventive manner
Podosphaera fuliginea [3] = assay: Fungicidal activity against Podosphaera fuliginea assessed as cucumber powdery mildew disease control at 31.3 ppm treated 24 hr before inoculation by preventive manner
Podosphaera fuliginea [4] = assay: Fungicidal activity against Podosphaera fuliginea assessed as cucumber powdery mildew disease control at 500 ppm treated 24 hr before inoculation by preventive manner
Botrytis cinerea [5] = assay: Fungicidal activity against Botryotinia fuckeliana assessed as cucumber gray mold disease control at 31.3 ppm treated 24 hr before inoculation by preventive manner
Pyricularia oryzae [6] = assay: Fungicidal activity against Magnaporthe oryzae Cav. race 003 assessed as rice blast disease control at 125 ppm treated 24 hr before inoculation by preventive manner
[7] = tested on: Pseudoperonospora cubensis; assay: Fungicidal activity against Pseudoperonospora cubensis assessed as cucumber downy mildew disease control at 31.3 ppm foliar application 24 hr before inoculation onto the adaxial(treated) surface of leaf by preventive manner
[8] = tested on: Pseudoperonospora cubensis; assay: Fungicidal activity against Pseudoperonospora cubensis assessed as cucumber downy mildew disease control at 7.8 ppm foliar application 24 hr after inoculation by curative manner
Podosphaera fuliginea [9] = assay: Fungicidal activity against Podosphaera fuliginea assessed as cucumber powdery mildew control at 0.125 ppm foliar application 24 hr after inoculation by curative manner
Pyricularia oryzae [10] = assay: Fungicidal activity against Magnaporthe oryzae Cav. race 003 assessed as rice blast disease control at 125 ppm foliar application for 24 hr before inoculation by preventive manner
Botrytis cinerea [11] = assay: Fungicidal activity against Botryotinia fuckeliana assessed as cucumber gray mold disease control at 125 ppm foliar application 24 hr before inoculation by preventive manner
Thanatephorus cucumeris [12] = assay: Fungicidal activity against Thanatephorus cucumeris assessed as rice sheath blight disease control at 7.8 ppm foliar application for 24 hr after inoculation by curative manner
[13] = tested on: Pseudoperonospora cubensis; assay: Fungicidal activity against Pseudoperonospora cubensis assessed as cucumber downy mildew disease control at 2 ppm foliar application 24 hr before inoculation onto the adaxial(treated) surface of leaf by preventive manner
Botrytis cinerea [14] = assay: Fungicidal activity against Botryotinia fuckeliana assessed as cucumber gray mold disease control at 7.8 ppm foliar application 24 hr after inoculation by curative manner
[15] = tested on: Pseudoperonospora cubensis; assay: Fungicidal activity against Pseudoperonospora cubensis assessed as cucumber downy mildew disease control at 125 ppm foliar application 24 hr before inoculation onto the adaxial(treated) surface of leaf by preventive manner
Thanatephorus cucumeris [16] = assay: Fungicidal activity against Thanatephorus cucumeris assessed as rice sheath blight disease control at 2 ppm foliar application for 24 hr after inoculation by curative manner
[17] = tested on: Pseudoperonospora cubensis; assay: Fungicidal activity against Pseudoperonospora cubensis assessed as cucumber downy mildew disease control at 125 ppm foliar application 24 hr after inoculation by curative manner
Blumeria graminis [18] = assay: Fungicidal activity against Blumeria graminis f. sp. tritici assessed as wheat powdery mildew disease control at 2 ppm foliar application for 24 hr before inoculation by preventive manner
Podosphaera fuliginea [19] = assay: Fungicidal activity against Podosphaera fuliginea assessed as cucumber powdery mildew control at 7.8 ppm foliar application 24 hr after inoculation by curative manner
Podosphaera fuliginea [20] = assay: Fungicidal activity against Podosphaera fuliginea assessed as cucumber powdery mildew control at 7.8 ppm foliar application 24 hr before inoculation by preventive manner
Pyricularia oryzae [21] = assay: Fungicidal activity against Magnaporthe oryzae Cav. race 003 assessed as rice blast disease control at 2 ppm foliar application for 24 hr before inoculation by preventive manner
Thanatephorus cucumeris [22] = assay: Fungicidal activity against Thanatephorus cucumeris assessed as rice sheath blight disease control at 31.3 ppm foliar application for 24 hr before inoculation by preventive manner
Podosphaera fuliginea [23] = assay: Fungicidal activity against Podosphaera fuliginea assessed as cucumber powdery mildew control at 0.5 ppm foliar application 24 hr after inoculation by curative manner
Thanatephorus cucumeris [24] = assay: Fungicidal activity against Thanatephorus cucumeris assessed as rice sheath blight disease control at 2 ppm foliar application for 24 hr before inoculation by preventive manner
Thanatephorus cucumeris [25] = assay: Fungicidal activity against Thanatephorus cucumeris assessed as rice sheath blight disease control at 31.3 ppm foliar application for 24 hr after inoculation by curative manner
Blumeria graminis [26] = assay: Fungicidal activity against Blumeria graminis f. sp. tritici assessed as wheat powdery mildew disease control at 2 ppm foliar application for 24 hr after inoculation by curative manner
Podosphaera fuliginea [27] = assay: Fungicidal activity against Podosphaera fuliginea assessed as cucumber powdery mildew control at 2 ppm foliar application 24 hr after inoculation by curative manner
Podosphaera fuliginea [28] = assay: Fungicidal activity against Podosphaera fuliginea assessed as cucumber powdery mildew control at 2 ppm foliar application 24 hr before inoculation by preventive manner
Thanatephorus cucumeris [29] = assay: Fungicidal activity against Thanatephorus cucumeris assessed as rice sheath blight disease control at 125 ppm foliar application for 24 hr before inoculation by preventive manner
[30] = tested on: Pseudoperonospora cubensis; assay: Fungicidal activity against Pseudoperonospora cubensis assessed as cucumber downy mildew disease control at 125 ppm foliar application 24 hr before inoculation onto the abaxial(treated) surface of leaf by preventive manner
[31] = tested on: Pseudoperonospora cubensis; assay: Fungicidal activity against Pseudoperonospora cubensis assessed as cucumber downy mildew disease control at 31.3 ppm foliar application 24 hr after inoculation by curative manner
Botrytis cinerea [32] = assay: Fungicidal activity against Botryotinia fuckeliana assessed as cucumber gray mold disease control at 31.3 ppm foliar application 24 hr before inoculation by preventive manner
Podosphaera fuliginea [33] = assay: Fungicidal activity against Podosphaera fuliginea assessed as cucumber powdery mildew control at 0.125 ppm foliar application 24 hr before inoculation by preventive manner
[34] = tested on: Pseudoperonospora cubensis; assay: Fungicidal activity against Pseudoperonospora cubensis assessed as cucumber downy mildew disease control at 7.8 ppm foliar application 24 hr before inoculation onto the abaxial(treated) surface of leaf by preventive manner
Thanatephorus cucumeris [35] = assay: Fungicidal activity against Thanatephorus cucumeris assessed as rice sheath blight disease control at 125 ppm foliar application for 24 hr after inoculation by curative manner
Blumeria graminis [36] = assay: Fungicidal activity against Blumeria graminis f. sp. tritici assessed as wheat powdery mildew disease control at 7.8 ppm foliar application for 24 hr after inoculation by curative manner
Pyricularia oryzae [37] = assay: Fungicidal activity against Magnaporthe oryzae Cav. race 003 assessed as rice blast disease control at 31.3 ppm foliar application for 24 hr before inoculation by preventive manner
[38] = tested on: Pseudoperonospora cubensis; assay: Fungicidal activity against Pseudoperonospora cubensis assessed as cucumber downy mildew disease control at 2 ppm foliar application 24 hr after inoculation by curative manner
[39] = tested on: Pseudoperonospora cubensis; assay: Fungicidal activity against Pseudoperonospora cubensis assessed as cucumber downy mildew disease control at 31.3 ppm foliar application 24 hr before inoculation onto the abaxial(treated) surface of leaf by preventive manner
Botrytis cinerea [40] = assay: Fungicidal activity against Botryotinia fuckeliana assessed as cucumber gray mold disease control at 7.8 ppm foliar application 24 hr before inoculation by preventive manner
Blumeria graminis [41] = assay: Fungicidal activity against Blumeria graminis f. sp. tritici assessed as wheat powdery mildew disease control at 125 ppm foliar application for 24 hr before inoculation by preventive manner
Botrytis cinerea [42] = assay: Fungicidal activity against Botryotinia fuckeliana assessed as cucumber gray mold disease control at 2 ppm foliar application 24 hr before inoculation by preventive manner
Blumeria graminis [43] = assay: Fungicidal activity against Blumeria graminis f. sp. tritici assessed as wheat powdery mildew disease control at 31.3 ppm foliar application for 24 hr before inoculation by preventive manner
Botrytis cinerea [44] = assay: Fungicidal activity against Botryotinia fuckeliana assessed as cucumber gray mold disease control at 31.3 ppm foliar application 24 hr after inoculation by curative manner
[45] = tested on: Pseudoperonospora cubensis; assay: Fungicidal activity against Pseudoperonospora cubensis assessed as cucumber downy mildew disease control at 2 ppm foliar application 24 hr before inoculation onto the abaxial(treated) surface of leaf by preventive manner
Podosphaera fuliginea [46] = assay: Fungicidal activity against Podosphaera fuliginea assessed as cucumber powdery mildew control at 0.5 ppm foliar application 24 hr before inoculation by preventive manner
Botrytis cinerea [47] = assay: Fungicidal activity against Botryotinia fuckeliana assessed as cucumber gray mold disease control at 2 ppm foliar application 24 hr after inoculation by curative manner
Blumeria graminis [48] = assay: Fungicidal activity against Blumeria graminis f. sp. tritici assessed as wheat powdery mildew disease control at 125 ppm foliar application for 24 hr after inoculation by curative manner
Botrytis cinerea [49] = assay: Fungicidal activity against Botryotinia fuckeliana assessed as cucumber gray mold disease control at 125 ppm foliar application 24 hr after inoculation by curative manner
Pyricularia oryzae [50] = assay: Fungicidal activity against Magnaporthe oryzae Cav. race 003 assessed as rice blast disease control at 7.8 ppm foliar application for 24 hr before inoculation by preventive manner
Blumeria graminis [51] = assay: Fungicidal activity against Blumeria graminis f. sp. tritici assessed as wheat powdery mildew disease control at 7.8 ppm foliar application for 24 hr before inoculation by preventive manner
Thanatephorus cucumeris [52] = assay: Fungicidal activity against Thanatephorus cucumeris assessed as rice sheath blight disease control at 7.8 ppm foliar application for 24 hr before inoculation by preventive manner
Blumeria graminis [53] = assay: Fungicidal activity against Blumeria graminis f. sp. tritici assessed as wheat powdery mildew disease control at 31.3 ppm foliar application for 24 hr after inoculation by curative manner
[54] = tested on: Pseudoperonospora cubensis; assay: Fungicidal activity against Pseudoperonospora cubensis assessed as cucumber downy mildew disease control at 7.8 ppm foliar application 24 hr before inoculation onto the adaxial(treated) surface of leaf by preventive manner

Measured: Activity

CCNC(=O)C(OC)c1cccc(COc2cc(C)ccc2C)c1 (centres undefined)
90%: Podosphaera fuliginea [3]
50%: Botrytis cinerea [1]
<90%: Pyricularia oryzae [2]

CNC(=O)C(OC)c1cccc(COc2cc(C)cc(C)c2)c1 (centres undefined)
<90%: Podosphaera fuliginea [4]
90%: Pyricularia oryzae [6]
50%: Botrytis cinerea [5]

CO/N=C(/C(=O)OC)c1ccccc1COc1ccccc1C [KRESOXIM-METHYL]
97%: [7] | Pyricularia oryzae [10] | [13] | [15] | Podosphaera fuliginea [20] | [54]
90%: Podosphaera fuliginea [27] | Blumeria graminis [41] | Blumeria graminis [48] | Blumeria graminis [53]
20%: Botrytis cinerea [42] | Podosphaera fuliginea [46]
30%: [17] | Blumeria graminis [18] | Pyricularia oryzae [21] | Thanatephorus cucumeris [22] | Thanatephorus cucumeris [24] | Thanatephorus cucumeris [25] | [30] | Botrytis cinerea [49] | Thanatephorus cucumeris [52]
70%: Blumeria graminis [36] | Pyricularia oryzae [37] | Blumeria graminis [43]
50%: Podosphaera fuliginea [9] | Botrytis cinerea [11] | Blumeria graminis [26] | Thanatephorus cucumeris [29] | Botrytis cinerea [32] | Thanatephorus cucumeris [35] | Botrytis cinerea [40] | Pyricularia oryzae [50] | Blumeria graminis [51]
80%: Podosphaera fuliginea [23] | Podosphaera fuliginea [28]
100%: Podosphaera fuliginea [19]
10%: Botrytis cinerea [44]
not listed: Botrytis cinerea [1] | Pyricularia oryzae [2] | Podosphaera fuliginea [3] | Podosphaera fuliginea [4] | Botrytis cinerea [5] | Pyricularia oryzae [6]
0%: all other assays above
